Experiment [1] relates to primary human T-cells. Put plainly: Proliferation assay after 5 days (CellTiter-Glo, CD3 stimulation; PBS counter screen). In kind it is cell-based. Conditions: CD3 stimulation; for Emax: read-out: Emax proliferation (% activation); for pEC50: primary human T-cells, CellTiter-Glo after 5 days, EC50 of fitted sigmoidal curve, read-out: Tcell Proliferation CD3 EC50. The method in brief:
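Read-out: CellTiter-Glo 2.0 luminescence (ATP ∝ cell number) at day 5 after compound addition. Compounds activating unstimulated cells or reducing viability flagged.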

In a further experiment the test system is MV-3 cells. Put plainly: T-cell - TCB - MV3 killing assay (MCSP-TCB, RFP object count by Incucyte). In kind it is cell-based, human. Conditions: 5 d; for Emax: normalized: MCSP-TCB only = neutral control, 20 μM reference compound A1 = 100%, read-out: MSCP TCB killing MV-3 cells 5 d Emax; for pEC50: primary human T-cells + MCSP-TCB, MV-3 RFP cells, read-out: MSCP TCB killing MV-3 cells 5 d EC50.

The subject of experiment [2] is primary human T-cells.
Where [3] appears, read: Homo sapiens, T-cell, 120 h, 5 days, normalized to reference compound A1 as stimulator control = 100%, DMSO neutral control.

pEC50: −log10 of the molar value. Where two headings read alike, the source gives them in different places.

Consider `N[C@H]1CS(=O)(=O)c2ccc(-c3nnc(N4CCOC(F)(F)C4)o3)cc2N(Cc2ccc(Cl)cc2)C1=O` [Example 391, (3R)-3-amino-5-[(4-chlorophenyl)methyl]-7-[5-(2,2-difluoromorpholin-4-yl)-1,3,4-oxadiazol-2-yl]-1,1-dioxo-2,3-dihydro-1λ^6,5-benzothiazepin-4-one], for which the Emax was 157% in the experiment with primary human T-cells [1] (setting [3]) and 100% in the experiment on MV-3 cells (Homo sapiens, MV-3, 120 h). Further, the pEC50 in the experiment on primary human T-cells [1] (Homo sapiens, T-cell, 120 h) is 6.68; with MV-3 cells (Homo sapiens, MV-3, 120 h), 7.15; in the experiment with primary human T-cells [2], 6.55.
Take `CC(C)Oc1ccc(CN2C(=O)[C@@H](N)CS(=O)(=O)c3cc(F)c(-c4nnc(C(C)(C)C)o4)cc32)cn1` [Example 249, (3R)-3-amino-7-(5-tert-butyl-1,3,4-oxadiazol-2-yl)-8-fluoro-5-[(6-isopropoxy-3-pyridyl)methyl]-1,1-dioxo-2,3-dihydro-1λ^6,5-benzothiazepin-4-one]: the Emax in the experiment on primary human T-cells [1] (setting [3]) worked out at 161%; in the experiment on MV-3 cells (Homo sapiens, MV-3, 120 h), 100%. For the same compound, the pEC50 with primary human T-cells [1] (Homo sapiens, T-cell, 120 h) is 5.91; in the experiment with MV-3 cells, 6.68; in the experiment on primary human T-cells [2] it was less than 5.00.
Regarding `CC[C@H](NC)C(=O)N[C@H]1CS(=O)(=O)c2cc(F)c(-c3nnc(C(C)(C)C)o3)cc2N(Cc2ccc(Cl)cc2)C1=O` [Example 270, (2S)-2-(methylamino)-N-[(3R)-7-(5-tert-butyl-1,3,4-oxadiazol-2-yl)-5-[(4-chlorophenyl)methyl]-8-fluoro-1,1,4-trioxo-2,3-dihydro-1λ^6,5-benzothiazepin-3-yl]butanamide], the “Emax proliferation (% activation)” value with primary human T-cells [1] (5 days, normalized to reference compound A1 as stimulator control = 100%, DMSO neutral control) is 111 % activation. The pEC50 with primary human T-cells [1] was 7.40; with MV-3 cells, 7.70; with primary human T-cells [2], 7.24. In the experiment with MV-3 cells (Homo sapiens, MV-3, 120 h), the Emax came out at 81%.
On to `N[C@H]1CS(=O)(=O)c2cc(F)c(-c3nnc(NC4CCCC(F)(F)C4)o3)cc2N(Cc2ccc(Cl)cc2)C1=O` (stereo partly drawn) [Example 463, (3R)-3-amino-5-[(4-chlorophenyl)methyl]-7-[5-[(3,3-difluorocyclohexyl)amino]-1,3,4-oxadiazol-2-yl]-8-fluoro-1,1-dioxo-2,3-dihydro-λ^6,5-benzothiazepin-4-one], for which the Emax was 104% in the experiment on primary human T-cells [1] (setting [3]) and 91% in the experiment on MV-3 cells (Homo sapiens, MV-3, 120 h). Also, the pEC50 was 6.28 in the experiment on primary human T-cells [1] (Homo sapiens, T-cell, 120 h); 6.27 with MV-3 cells; 6.24 in the experiment with primary human T-cells [2].
The matching figures for `N[C@H]1CS(=O)(=O)c2ccc(-c3nnc(NC4CC(F)(F)C4)o3)cc2N(Cc2ccc(Cl)cc2)C1=O` [Example 397, (3R)-3-amino-5-[(4-chlorophenyl)methyl]-7-[5-[(3,3-difluorocyclobutyl)amino]-1,3,4-oxadiazol-2-yl]-1,1-dioxo-2,3-dihydro-1λ^6,5-benzothiazepin-4-one]: 82%, 92%, 5.66, 5.73 and 6.19.
Regarding `NC(c1nnc(-c2cc3c(cc2F)S(=O)(=O)C[C@H](N)C(=O)N3Cc2ccc(Cl)cc2)o1)C(F)(F)F` (stereo partly drawn) [Example 122, (3R)-3-amino-7-[5-(1-amino-2,2,2-trifluoro-ethyl)-1,3,4-oxadiazol-2-yl]-5-[(4-chlorophenyl)methyl]-8-fluoro-1,1-dioxo-2,3-dihydro-1λ^6,5-benzothiazepin-4-one], the Emax in the experiment on primary human T-cells [1] (setting [3]) came to 92%; in the experiment with MV-3 cells (Homo sapiens, MV-3, 120 h), 86%. For the same compound, the pEC50 is 6.11 in the experiment with primary human T-cells [1] (Homo sapiens, T-cell, 120 h); 6.29 in the experiment on MV-3 cells; 6.62 in the experiment with primary human T-cells [2].
On to `CCc1nnn(-c2cc3c(cc2F)S(=O)(=O)C[C@H](N)C(=O)N3Cc2ccc(Cl)cc2)n1` [Example 509, (3R)-3-amino-5-[(4-chlorophenyl)methyl]-7-(5-ethyltetrazol-2-yl)-8-fluoro-1,1-dioxo-2,3-dihydro-1λ^6,5-benzothiazepin-4-one], for which the Emax with primary human T-cells [1] (setting [3]) worked out at 122%; in the experiment with MV-3 cells (Homo sapiens, MV-3, 120 h), 94%. Further, the pEC50 was 6.80 in the experiment on primary human T-cells [1] (Homo sapiens, T-cell, 120 h); 6.72 with MV-3 cells; 6.54 with primary human T-cells [2].
`CC(C)(C)c1nnc(-c2cc3c(cc2F)SC[C@H](N)C(=O)N3Cc2ccc(OC(F)(F)F)cc2)o1` [Example 54, (3R)-3-amino-7-(5-tert-butyl-1,3,4-oxadiazol-2-yl)-8-fluoro-5-[[4-(trifluoromethoxy)phenyl]methyl]-2,3-dihydro-1,5-benzothiazepin-4-one]: the Emax in the experiment with primary human T-cells [1] (setting [3]) turned out to be 116%; in the experiment with MV-3 cells (Homo sapiens, MV-3, 120 h), 123%. Further, the pEC50 was 5.95 in the experiment on primary human T-cells [1] (Homo sapiens, T-cell, 120 h) and 6.52 in the experiment on MV-3 cells (Homo sapiens, MV-3, 120 h).
Consider `CCc1noc(-c2cc3c(cc2F)S(=O)(=O)C[C@H](N)C(=O)N3Cc2ccc(Cl)cc2)n1` [Example 41, (3R)-3-Amino-5-[(4-chlorophenyl)methyl]-7-(3-ethyl-1,2,4-oxadiazol-5-yl)-8-fluoro-1,1-dioxo-2,3-dihydro-1λ^6,5-benzothiazepin-4-one], for which the Emax turned out to be 61% in the experiment with primary human T-cells [1] (setting [3]) and 92% in the experiment on MV-3 cells (Homo sapiens, MV-3, 120 h). Further, the pEC50 is 5.03 in the experiment with primary human T-cells [1] (Homo sapiens, T-cell, 120 h) and 6.64 with MV-3 cells.
`N[C@H]1CS(=O)(=O)c2cc(F)c(-c3nnc(CC(F)(F)F)o3)cc2N(Cc2ccc(OC(F)(F)F)cc2)C1=O` [Example 56, (3R)-3-Amino-8-fluoro-1,1-dioxo-7-[5-(2,2,2-trifluoroethyl)-1,3,4-oxadiazol-2-yl]-5-[[4-(trifluoromethoxy)phenyl]methyl]-2,3-dihydro-1λ^6,5-benzothiazepin-4-one]: the Emax with primary human T-cells [1] (setting [3]) came to 136%; in the experiment on MV-3 cells (Homo sapiens, MV-3, 120 h), 123%. In addition, the pEC50 with primary human T-cells [1] (Homo sapiens, T-cell, 120 h) is 6.38; in the experiment with MV-3 cells, 6.96.
`CC(C)(O)c1nnc(-c2cc3c(cc2F)S(=O)(=O)C[C@H](N)C(=O)N3Cc2ccc(Cl)cc2)o1` [Example 119, (3R)-3-amino-5-[(4-chlorophenyl)methyl]-8-fluoro-7-[5-(1-hydroxy-1-methyl-ethyl)-1,3,4-oxadiazol-2-yl]-1,1-dioxo-2,3-dihydro-1λ^6,5-benzothiazepin-4-one]: the Emax with primary human T-cells [1] (setting [3]) came out at 97%. The pEC50 was 6.14 in the experiment on primary human T-cells [1] (Homo sapiens, T-cell, 120 h) and 5.92 with primary human T-cells [2].
Regarding `CC(C)(N)c1nnc(-c2cc3c(cc2F)S(=O)(=O)C[C@H](N)C(=O)N3Cc2ccc(Cl)cc2)o1` [Example 69], the Emax in the experiment with primary human T-cells [1] (setting [3]) was 171%. Moreover, the pEC50 was 5.32 in the experiment on primary human T-cells [1] (Homo sapiens, T-cell, 120 h) and 5.78 with primary human T-cells [2].
With `N[C@H]1CS(=O)(=O)c2cc(F)c(-c3nnc(C4CCC(F)(F)CC4)o3)cc2N(Cc2ccc(Cl)cc2)C1=O` [Example 73, (3R)-3-Amino-5-[(4-chlorophenyl)methyl]-7-[5-(4,4-difluorocyclohexyl)-1,3,4-oxadiazol-2-yl]-8-fluoro-1,1-dioxo-2,3-dihydro-1λ^6,5-benzothiazepin-4-one], the Emax in the experiment on primary human T-cells [1] (setting [3]) was determined as 194%. The pEC50 is 6.90 with primary human T-cells [1] (Homo sapiens, T-cell, 120 h) and 7.30 with primary human T-cells [2].
As to `CC(C)(CN1CCCCC1=O)c1nnc(-c2cc3c(cc2F)S(=O)(=O)C[C@H](N)C(=O)N3Cc2ccc(Cl)cc2)o1` [Example 66, (3R)-3-amino-5-[(4-chlorophenyl)methyl]-7-[5-[1,1-dimethyl-2-(2-oxo-1-piperidyl)ethyl]-1,3,4-oxadiazol-2-yl]-8-fluoro-1,1-dioxo-2,3-dihydro-1λ^6,5-benzothiazepin-4-one], the Emax in the experiment on primary human T-cells [1] (setting [3]) is 112%. In addition, the pEC50 was 5.68 with primary human T-cells [1] (Homo sapiens, T-cell, 120 h) and 5.88 with primary human T-cells [2].
`N[C@H]1CS(=O)(=O)c2cc(F)c(-c3nnc(C(=O)N4CCCC(F)(F)C4)o3)cc2N(Cc2ccc(Cl)cc2)C1=O` [Example 93, (3R)-3-amino-5-[(4-chlorophenyl)methyl]-7-[5-(3,3-difluoropiperidine-1-carbonyl)-1,3,4-oxadiazol-2-yl]-8-fluoro-1,1-dioxo-2,3-dihydro-1λ^6,5-benzothiazepin-4-one]: the Emax in the experiment on primary human T-cells [1] (setting [3]) was found to be 100%. The pEC50 in the experiment on primary human T-cells [1] (Homo sapiens, T-cell, 120 h) is 5.76; with primary human T-cells [2], 6.18.
Regarding `CC(C)(C)c1nnc(-c2cc3c(cc2F)S(=O)(=O)C[C@H](N)C(=O)N3Cc2ccccn2)o1` [Example 224, (3R)-3-amino-7-(5-tert-butyl-1,3,4-oxadiazol-2-yl)-8-fluoro-1,1-dioxo-5-(2-pyridylmethyl)-2,3-dihydro-1λ^6,5-benzothiazepin-4-one], the Emax with primary human T-cells [1] (setting [3]) is 31%. For the same compound, the pEC50 with primary human T-cells [1] (Homo sapiens, T-cell, 120 h) was less than 4.70; in the experiment with primary human T-cells [2], less than 4.70.
For the compound `CN1CC(c2nnc(-c3ccc4c(c3)N(Cc3ccc(Cl)cc3)C(=O)[C@@H](N)CS4(=O)=O)o2)CC(F)(F)C1` (stereo partly drawn) [Example 385, (3R)-3-amino-5-[(4-chlorophenyl)methyl]-7-[5-(5,5-difluoro-1-methyl-3-piperidyl)-1,3,4-oxadiazol-2-yl]-1,1-dioxo-2,3-dihydro-1λ^6,5-benzothiazepin-4-one], the Emax with primary human T-cells [1] (setting [3]) was determined as 106%. Also, the pEC50 in the experiment on primary human T-cells [1] (Homo sapiens, T-cell, 120 h) was 5.83; in the experiment with primary human T-cells [2], 6.05.
For `N[C@H]1CS(=O)(=O)c2cc(F)c(-c3nnc(C45CNCCC4C5)o3)cc2N(Cc2ccc(Cl)cc2)C1=O` (stereo partly drawn) [Example 121, (3R)-3-amino-7-[5-(3-azabicyclo[4.1.0]heptan-1-yl)-1,3,4-oxadiazol-2-yl]-5-[(4-chlorophenyl)methyl]-8-fluoro-1,1-dioxo-2,3-dihydro-1λ^6,5-benzothiazepin-4-one], the Emax with primary human T-cells [1] (setting [3]) turned out to be 72%. For the same compound, the pEC50 was 5.32 in the experiment with primary human T-cells [1] (Homo sapiens, T-cell, 120 h) and 5.20 with primary human T-cells [2].

The record behind these values is patent US20240368150A1 (Hoffmann-La Roche Inc., priority 2021, published 2024).
